{
  "source": "patent US20260297035A1",
  "about": "“PROTEIN KINASE INHIBITORS AND USES THEREOF” (DELiver Therapeutics, Inc., priority 2023, published 2026)",
  "assay": "non-GLP multi-dose toxicity study (dose escalation, daily IP injection)",
  "format": "in vivo, mouse (6-week-old Balb/c females)",
  "conditions": "mice",
  "experimental": "An initial non-GLP multi-dose toxicity study of Cmpd11 and Cmpd66 was performed, which included a comparison to COM1 and COM3 clinical compounds. […] Body weights were recorded 2× weekly for healthy mice followed by weekly in the recovery phase. Blood draws were taken, retro-orbitally, every other week (for a total of three blood draws per group) to determine the plasma levels of compounds throughout the duration of the study (unless mice were euthanized prior to completion of the 28-day dosing period). […] Any animals showing more than 9% weight loss were weighed every day and animals were euthanized after a weight loss of 15% or more or evidence of high distress (e.g., listless, hunched posture, high grimace score). Also, plasma samples were drawn at euthanasia. Control groups included vehicle only and no manipulation.\nA summary of the study is illustrated in FIG. 14. There are six groups with 90 mice total and following is an overview of groups for the study.\nThe following are criteria for dose escalation and staggering of group starting points. Animals in each group are monitored after the initial dose for 3-4 days, and if there is no observed dose-limiting toxicity (DLT), then a separate cohort of naïve animals are administered the next higher dose level. Note that each cohort of animals receives the same drug and drug dose for the duration of the 28-day dosing period unless euthanasia is required. Animals in the second, dose-escalated group, are then monitored for 3-4 days, and if there is no observed DLT, animals from a fresh cohort are administered the next higher dose level, while continuing with the former cohorts up to 5 dose levels total. Animals in each cohort then are monitored after the third dose for 7 days, and if there is no observed DLT, then animals are administered the next higher doses. If DLT is observed during a monitoring period for any dose level, a subsequent dose is reduced by a level that is intermediate between the highest tolerated level tested and the minimum toxic level tested.",
  "data": [
    {"smiles": "Cc1ccc(Nc2ncc3cccc(-c4ccc(F)cc4OC(C)C)c3n2)cc1NC(=O)c1ccc(C(=O)N(C)C)cc1", "note": "[Cmpd11, N1-(5-((8-(4-fluoro-2-isopropoxyphenyl)quinazolin-2-yl)amino)-2-methylphenyl)-N4,N4-dimethylterephthalamide]", "values": [
      {"measurement": "tolerability relative to COM1", "setting": "at doses required to reach the in vitro K562-Luc EC50 plasma levels in vivo, early results", "value": "more tolerable than COM1"},
      {"measurement": "tolerability", "setting": "daily IP, 1.5 mg/kg, through day 24", "value": "well tolerated"},
      {"measurement": "tolerability", "setting": "daily IP, 4.5 mg/kg, through day 14", "value": "well tolerated"},
      {"measurement": "mortality at 168 h", "setting": "mouse, in vivo, daily IP, 18 mg/kg (12X EC50), by day 7, read-out: expiration of animals (2 out of 5)", "value": 40, "unit": "%"}
    ]}
  ]
}
